Results reported in article PMC3567233 (Biochemistry, 2012).

Tested on: M. bovis BCG transmembrane potential (ΔΨ)
Format: cell-based, Mycobacterium bovis BCG
Conditions: pH 7.2

In the case of `N#CC(C#N)=NNc1cccc(Cl)c1` [CCCP, carbonyl cyanide m-chlorophenylhydrazone], the “DiOC2 red / green fluorescence ratio, M. bovis” value is reported as 0.086±0.003.
